Reference: patent US6967197B2, “Thiazepinyl hydroxamic acid derivatives as matrix metalloproteinase inhibitors” (Fujisawa Pharmaceutical Co., Ltd., priority 2000, dated 2005)

Target: T1, human MMP-9 (Homo sapiens, UniProt P14780)
T1 construct: purchased Yagai, Japan
Assay: Inhibitory activity of human MMP-9
Format: biochemical
Conditions: commercial kit (Yagai, Japan); degradation of FITC-labeled bovine type IV collagen after incubation for 4 hours at 42° C.
Method: Inhibitory Activity of Human MMP-9
The inhibitory activity of test compounds against human MMP-9 were measured by using commercial kits (Yagai, Japan). Gelatinolytic activity was determined by monitoring the degradation of FITC-labeled bovine type IV collagen after incubation for 4 hours at 42° C. The amount of degraded collagen was estimated by measuring the fluorescence intensity at 495 nm (excitation) and 520 nm (emission).
Inhibitory activity of human MMP-9 as mentioned above.

T1 sequence (P14780 94-707): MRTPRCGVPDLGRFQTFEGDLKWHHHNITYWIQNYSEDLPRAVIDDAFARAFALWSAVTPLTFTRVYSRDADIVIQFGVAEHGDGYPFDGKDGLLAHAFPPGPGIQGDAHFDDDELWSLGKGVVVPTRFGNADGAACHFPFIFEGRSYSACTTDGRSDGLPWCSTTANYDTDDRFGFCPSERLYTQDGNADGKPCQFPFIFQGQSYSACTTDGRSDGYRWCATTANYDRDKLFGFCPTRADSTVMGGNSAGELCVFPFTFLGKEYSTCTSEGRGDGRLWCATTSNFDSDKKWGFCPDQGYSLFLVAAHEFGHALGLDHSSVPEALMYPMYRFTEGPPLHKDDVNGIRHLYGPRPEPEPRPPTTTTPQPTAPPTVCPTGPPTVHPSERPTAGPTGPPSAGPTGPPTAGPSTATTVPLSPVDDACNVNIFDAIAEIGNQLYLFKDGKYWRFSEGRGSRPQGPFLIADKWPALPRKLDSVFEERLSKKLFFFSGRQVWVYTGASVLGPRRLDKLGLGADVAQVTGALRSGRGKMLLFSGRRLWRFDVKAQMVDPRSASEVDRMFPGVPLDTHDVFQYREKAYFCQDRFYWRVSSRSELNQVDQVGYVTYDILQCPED

Work on COc1ccc(-c2ccc(C3(CC(=O)NO)CCN(S(C)(=O)=O)CCS3(=O)=O)s2)cc1 (stereo not shown) [Example 17, N-hydroxy-2-[7-(5-(4-methoxyphenyl)-2-thienyl)-4-methanesulfonyl-1,1-dioxoperhydro-1,4-thiazepin-7-yl]acetamide] yielded an IC50 of 2.85 nM.
